Experiments:
TPα = molecular target: T1, TPα (Homo sapiens, UniProt P21731); experiment: U46619-induced [Ca2+]i mobilization in HEK.TPα cells; format: cell-based; conditions: for remaining activity at 1 µM: antagonist 1 μM, read-out: Percentage of Control, TPα, 1 μM; for remaining activity at 1 µM / remaining activity at 10 µM: % of agonist-induced response in vehicle-treated cells; for remaining activity at 10 µM: antagonist 10 μM, read-out: Percentage of Control, TPα, 10 μM
T1 construct: expressed in transfected cells
T1 sequence (P21731 1-343): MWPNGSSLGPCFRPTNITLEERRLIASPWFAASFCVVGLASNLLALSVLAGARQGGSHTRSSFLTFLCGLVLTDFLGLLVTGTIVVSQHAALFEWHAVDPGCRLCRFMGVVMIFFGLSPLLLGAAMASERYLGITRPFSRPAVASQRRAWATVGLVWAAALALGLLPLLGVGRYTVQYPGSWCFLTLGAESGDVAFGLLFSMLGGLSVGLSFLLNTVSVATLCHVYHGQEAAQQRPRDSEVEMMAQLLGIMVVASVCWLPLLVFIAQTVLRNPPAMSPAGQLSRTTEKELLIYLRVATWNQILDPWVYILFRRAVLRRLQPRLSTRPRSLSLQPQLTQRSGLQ
From the text: (§1) An appropriate functional test for the evaluation of the agonistic and/or antagonistic potency of the compounds of the invention is the determination of calcium flux. Both TPα and TPβ are coupled to the G-protein Gαq. Therefore, stimulation of these receptors ultimately leads to a release of intracellular calcium ([Ca^2+]i) from intracellular stores. Consequently, the determination of [Ca^2+]i flux represents an appropriate functional test for the evaluation of the agonistic/antagonistic potency of compounds of the invention. Calcium can be measured using a molecule characterized by the covalent combination of a Ca^2+ chelating group and a fluorophore group. The Ca^2+ binding properties of these indicators are formed by the presence of a tetracarboxylic acid core as found for example in EGTA (Ethylene Glycol bis(2-aminoethyl)Tetraacetic Acid). Binding of Ca^2+ produces a wavelength shift in either the excitation or emission fluorescence spectra or a change in the emission intensity. Whereas the Ca^2+ binding to EGTA is pH dependent, recent dyes are designed from an EGTA derivative, BAPTA (1,2-Bis(2-Aminophenoxy)ethane-N,N,N′,N′-Tetraacetic Acid). Loading of these dyes inside cells commonly uses esterified forms (acetoxymethyl ester), which are able to cross the cell membranes and are subsequently hydrolyzed by esterases inside the cell.
(§2) Estimation of [Ca^2+]i flux is calculated from the fluorescence signal (F). For calibration, the maximal fluorescence (Fmax, Ca^2+-saturated form of the dye) as well as minimal fluorescence (Fmin, Ca^2+-free form of the dye) must be determined. These parameters are determined usually in situ after the experiment, for example by subsequent addition to the mixture of a cell-disrupting agent that releases all Ca^2+ such as Triton X100 and a potent Ca^2+-chelating agent such as EGTA. After subtraction of background fluorescence, [Ca^2+]; flux can be calculated for non-ratiometric indicators.
(§3) Intracellular [Ca^2+]; fluxes were measured using a fluorescence plate reader following a modified protocol of Kassack et al., ‘Quantitative comparison of functional screening by measuring intracellular Ca^2+ with radioligand binding at recombinant human dopamine receptors’, AAPS Pharmsci, 2002, 4(4); 102-111, in cell lines (e.g. HEK293 or other cell type) endogenously-expressing or over-expressing either TPα, TPβ or any other receptor or protein to be screened.
(§4) By way of example, HEK 293 cells which have been grown for 3-4 days in normal growth media (minimum essential media containing 10% FBS and 2 mmol/1 L-glutamine), under normal growth conditions (37° C., in humidified 5% CO2 atmosphere) are washed and harvested in KREBs-HEPES buffer (118 mM NaCl, 4.7 mM KCl, 1.2 mM MgSO4, 1.2 mM KH2PO4, 4.2 mM NaHCO3, 11.7 mM D-glucose, 1.3 mM CaCl2, 10 mM HEPES, pH 7.4). Cells are then incubated with 3 μM Fluo-4 in KREBs-HEPES buffer containing 1% Pluoronic F-127, for 1 hr at 25° C. with agitation. Then, cells are washed in KREBs-HEPES buffer containing 0.5% BSA and re-suspended at a final concentration of 3×10^5 cells/ml. Approx. 5.4×10^4 cells per well are plated in a 96-well plate and pre-incubated with test compounds for 10 m prior to measuring the fluorescence intensity at 520 nm for 25 seconds at 1 s intervals to monitor baseline using the Fluoroskan Ascent. Agonist (e.g., 1 μM U46619) is injected into separate wells by the automatic pipettor and fluorescence intensity is monitored at 520 nm for 75 seconds at 1 s intervals. Thereafter, Triton X100 and EGTA are added sequentially where Fmax refers to maximal fluorescence intensity measured after permeabilization of the cells with 2% Triton X100 and Fmin refers to fluorescence intensity measured after addition of 1 mM EGTA.
(§5) The dye Fluo-4 has its excitation peak at 480 nm, in the visible spectra, which spare cells to be damaged by UV (340-360 nm) stimulation and reduces auto-fluorescence of cells. […]

TPβ = molecular target: T2, TPβ (Homo sapiens, UniProt P21731); experiment: U46619-induced [Ca2+]i mobilization in HEK.TPβ cells; format: cell-based; conditions: 1 μM U46619; for remaining activity at 1 µM / activity class in HEK.TPβ cells: antagonist 1 μM; for remaining activity at 1 µM / remaining activity at 10 µM: % of agonist-induced response in vehicle-treated cells; for remaining activity at 1 µM: read-out: Percentage of Control, TPβ, 1 μM; for remaining activity at 10 µM: antagonist 10 μM, read-out: Percentage of Control, TPβ, 10 μM
T2 construct: expressed in transfected cells
From the text: as §1, §2, §3, §4, §5

T2 sequence (P21731 1-407 isoform P21731-2): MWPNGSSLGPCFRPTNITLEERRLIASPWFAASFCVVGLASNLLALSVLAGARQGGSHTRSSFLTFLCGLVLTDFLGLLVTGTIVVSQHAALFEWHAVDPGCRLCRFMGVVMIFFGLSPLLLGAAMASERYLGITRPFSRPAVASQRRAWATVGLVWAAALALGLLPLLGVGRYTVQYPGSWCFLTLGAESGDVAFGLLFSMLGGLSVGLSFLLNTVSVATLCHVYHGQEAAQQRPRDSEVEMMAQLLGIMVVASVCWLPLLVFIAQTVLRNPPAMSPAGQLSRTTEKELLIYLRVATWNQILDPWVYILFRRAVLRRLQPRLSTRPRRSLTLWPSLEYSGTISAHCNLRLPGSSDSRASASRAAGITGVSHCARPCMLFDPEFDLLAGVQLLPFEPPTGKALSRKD

| Compound | remaining activity at 1 µM (TPα; 1 μM U46619) [%] | remaining activity at 10 µM (TPα; 1 μM U46619) [%] | remaining activity at 1 µM (TPβ) [%] | remaining activity at 10 µM (TPβ) [%] | IC50 (TPα; HEK.TPα cells, 1 μM U46619, Table 2, read-out: IC50 data for U46619-mediated [Ca2+]i mobilization, TPα) [µM] | TPα:TPβ Selectivity Ratio (TPα; IC50 TPα/IC50 TPβ) | IC50 (TPβ; HEK.TPβ cells, Table 2, read-out: IC50 data for U46619-mediated [Ca2+]i mobilization, TPβ) [µM] | activity class in HEK.TPβ cells (TPβ) |
| --- | --- | --- | --- | --- | --- | --- | --- | --- |
| Cc1ccc(Nc2ccc([N+](=O)[O-])cc2S(=O)(=O)NC(=O)NC(C)(C)C)cc1 [BM573, reference compound] | 48.5 ± 1.77 | 12 ± 0.76 | 23.8 ± 0.68 | 9.9 ± 1.8 | – | – | – | – |
| CCCCCNC(=O)NS(=O)(=O)c1cc([N+](=O)[O-])ccc1Oc1cccc(-c2ccc(C)cc2)c1 [IX] | – | – | – | – | 11.6 | 7.5 | 1.54 | – |
| COc1ccc(-c2cccc(Oc3ccc(N)cc3S(=O)(=O)NC(=O)NC(C)(C)C)c2)cc1 [NTP1, 5-amino-N-(tert-butylcarbamoyl)-2-((4′-methoxy-[1,1′-biphenyl]-3-yl)oxy)benzene-sulfonamide] | 77.8 ± 8.71 | 50.2 ± 6.39 | 101 ± 4.75 | 102 ± 4.15 | – | – | – | – |
| COc1ccc(-c2cccc(Oc3ccc(C(=O)N(C)C)cc3S(=O)(=O)NC(=O)NC(C)(C)C)c2)cc1 [NTP2, 3-(N-(tert-butylcarbamoyl)sulfamoyl)-4-((4′-methoxy-[1,1′-biphenyl]-3-yl)oxy)-N,N-dimethylbenzamide] | 85 ± 2.71 | 54.9 ± 3.32 | 102 ± 3.59 | 90.1 ± 2.78 | – | – | – | – |
| COc1ccc(-c2cccc(Oc3ccc(C(F)(F)F)cc3S(=O)(=O)NC(=O)NC(C)(C)C)c2)cc1 [NTP3, N-(tert-butylcarbamoyl)-2-((4′-methoxy-[1,1′-biphenyl]-3-yl)oxy)-5-(trifluoromethyl)benzenesulfonamide] | 69.6 ± 5.35 | 41.6 ± 5.45 | 46 ± 5.92 | 14.8 ± 2.44 | – | – | – | ACTIVE |
| COc1ccc(-c2cccc(Oc3ccc(C(=O)O)cc3S(=O)(=O)NC(=O)NC(C)(C)C)c2)cc1 [NTP5, 3-(N-(tert-butylcarbamoyl)sulfamoyl)-4-((4′-methoxy-[1,1′-biphenyl]-3-yl)oxy)benzoic acid] | 98.7 ± 9.29 | 61.7 ± 1.42 | 88.3 ± 5.27 | 72 ± 3.87 | – | – | – | – |
| CCn1cc(-c2ccc(Oc3cccc(-c4ccc(OC)cc4)c3)c(S(=O)(=O)NC(=O)NC(C)(C)C)c2)cn1 [NTP6, N-(tert-butylcarbamoyl)-5-(1-ethyl-1H-pyrazol-4-yl)-2-((4′-methoxy-[1,1′-biphenyl]-3-yl)oxy)benzenesulfonamide] | 88.6 ± 14.5 | 45.1 ± 5.75 | 94.4 ± 7.7 | 57.4 ± 6.86 | – | – | – | – |
| COc1ccc(-c2cccc(Oc3ccc(Br)cc3S(=O)(=O)NC(=O)NC(C)(C)C)c2)cc1 [NTP7, 5-bromo-N-(tert-butylcarbamoyl)-2-((4′-methoxy-[1,1′-biphenyl]-3-yl)oxy)benzenesulfonamide] | 61.5 ± 7.7 | 32.5 ± 3.95 | 49 ± 4.41 | 12.2 ± 1.93 | – | – | – | ACTIVE |
| COc1ccc(-c2cccc(Oc3ccc(F)cc3S(=O)(=O)NC(=O)NC(C)(C)C)c2)cc1 [NTP8, N-(tert-butylcarbamoyl)-5-fluoro-2-((4′-methoxy-[1,1′-biphenyl]-3-yl)oxy)benzene-sulfonamide] | 68 ± 5.05 | 49.9 ± 6.91 | 59.4 ± 1.85 | 14.6 ± 2.72 | – | – | – | ACTIVE |
| COc1ccc(-c2cccc(Oc3ccc(C(C)=O)cc3S(=O)(=O)NC(=O)NC(C)(C)C)c2)cc1 [NTP9, 5-acetyl-N-(tert-butylcarbamoyl)-2-((4′-methoxy-[1,1′-biphenyl]-3-yl)oxy)benzenesulfonamide] | 85.9 ± 9.13 | 70.4 ± 2.47 | 46.3 ± 7.33 | 12.2 ± 1.03 | – | – | – | – |

— patent US9718781B2, “Methods and compounds for treating proliferative disorders and viral infections” (University College Dublin, National University of Ireland, …, priority 2012, dated 2017)
